Assay results as given in the supplement of paper PMC4862054.
Each block holds one compound with its values, some of them ahead of it.

What was measured:
Settings in all cases: 72 h
MDA-MB-231 [1] = system: MDA-MB-231
In short: (§1)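 The plates used were 384-well plates holding compound at 5 concentrations in 10-fold steps across a compound-specific 10,000-fold range, into which breast cancer cell lines were seeded in 20 µl suspension. Following 72 h incubation, CellTox Green fluorescence was read at 485/520 nm, and CellTiter-Glo luminescence was read after 10 min at room temperature. Normalisation on each plate used 0.1 % DMSO and a positive kill control. Dose-response curves gave the EC50, which was censored at the top concentration.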

HCC1599 [2] = system: HCC1599
In short: as §1

MDA-MB-468 [3] = system: MDA-MB-468
In short: as §1

BT-549 [4] = system: BT-549
In short: as §1

MDA-MB-453 [5] = system: MDA-MB-453
In short: as §1

MFM-223 [6] = system: MFM-223
In short: as §1

CAL-85-1 [7] = system: CAL-85-1
In short: as §1

MDA-MB-436 [8] = system: MDA-MB-436
In short: as §1

SK-BR-3 [9] = system: SK-BR-3
In short: as §1

CAL-148 [10] = system: CAL-148
In short: as §1

DU-4475 [11] = system: DU-4475
In short: as §1

BT-474 [12] = system: BT-474
In short: as §1

MDA-MB-231 [13] = system: MDA-MB-231; remark: listed apart in the source
Method: (§2)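 Drug sensitivity and resistance testing (DSRT) of breast cancer cell lines in 384-well plates, 5 concentrations in 10-fold dilutions over a compound-specific 10,000-fold range. After 72 h, cytotoxicity was read by CellTox Green fluorescence and viability by CellTiter-Glo luminescence (multiplexed), normalised to DMSO and benzethonium chloride controls. EC50 is the inflection point of the fitted dose-response curve (bottom asymptote free, so it can be relative for partial curves) and is censored at the highest tested concentration. Rows with DSS 0 (no meaningful response) were excluded.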

HCC1599 [14] = system: HCC1599; remark: listed apart in the source
Method: as §2

MDA-MB-453 [15] = system: MDA-MB-453; remark: listed apart in the source
Method: as §2

MFM-223 [16] = system: MFM-223; remark: listed apart in the source
Method: as §2

CAL-85-1 [17] = system: CAL-85-1; remark: listed apart in the source
Method: as §2

BT-474 [18] = system: BT-474; remark: listed apart in the source
Method: as §2

HCC1599 [19] = system: HCC1599; remark: listed apart in the source
In short: (§3)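 Rows with a drug sensitivity score of zero were dropped, and EC50 was taken from the fitted percent-inhibition dose-response curve, censored at the highest concentration. Data were normalised on each plate to vehicle and a positive kill control and checked by Z'-factor. The assay seeded breast cancer cell lines in 20 µl onto 384-well plates pre-loaded with compound in 5 µl medium for 72 h, then added 2.5 µl CellTiter-Blue for 2 h at 37 °C and read fluorescence at 560/590 nm.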

Hs578T [20] = system: Hs578T
In short: as §1

MDA-MB-468 [21] = system: MDA-MB-468; remark: listed apart in the source
In short: as §3

MFM-223 [22] = system: MFM-223; remark: listed apart in the source
In short: as §3

SK-BR-3 [23] = system: SK-BR-3; remark: listed apart in the source
In short: as §3

BT-474 [24] = system: BT-474; remark: listed apart in the source
In short: as §3

CAL-148 [25] = system: CAL-148; remark: listed apart in the source
Method: as §2

MDA-MB-453 [26] = system: MDA-MB-453; remark: listed apart in the source
In short: as §3

CAL-51 [27] = system: CAL-51
In short: as §3

CAL-148 [28] = system: CAL-148; remark: listed apart in the source
In short: as §3

CAL-51 [29] = system: CAL-51; remark: listed apart in the source
In short: as §1

CAL-120 [30] = system: CAL-120
In short: as §1

HCC1937 [31] = system: HCC1937
In short: as §3

MDA-MB-436 [32] = system: MDA-MB-436; remark: listed apart in the source
Method: as §2

DU-4475 [33] = system: DU-4475; remark: listed apart in the source
In short: as §3

MCF-10A [34] = system: MCF-10A
In short: as §1

HCC1937 [35] = system: HCC1937; remark: listed apart in the source
In short: as §1

HCC1143 [36] = system: HCC1143
In short: as §1

HDQ-P1 [37] = system: HDQ-P1
In short: as §1

MDA-MB-231 [38] = system: MDA-MB-231; remark: listed apart in the source
In short: as §3

BT-549 [39] = system: BT-549; remark: listed apart in the source
In short: as §3

Hs578T [40] = system: Hs578T; remark: listed apart in the source
In short: as §3

HCC1143 [41] = system: HCC1143; remark: listed apart in the source
In short: as §3

MDA-MB-436 [42] = system: MDA-MB-436; remark: listed apart in the source
In short: as §3

CAL-120 [43] = system: CAL-120; remark: listed apart in the source
In short: as §3

MCF-10A [44] = system: MCF-10A; remark: listed apart in the source
Method: as §2

MDA-MB-468 [45] = system: MDA-MB-468; remark: listed apart in the source
Method: as §2

Hs578T [46] = system: Hs578T; remark: listed apart in the source
Method: as §2

CAL-85-1 [47] = system: CAL-85-1; remark: listed apart in the source
In short: as §3

HDQ-P1 [48] = system: HDQ-P1; remark: listed apart in the source
In short: as §3

CAL-120 [49] = system: CAL-120; remark: listed apart in the source
Method: as §2

- EC50, CellTiter-Glo (MDA-MB-231 [1]): 3.82 µM
- EC50, CellTiter-Glo (HCC1599 [2]): 5.17 µM
- EC50, CellTiter-Glo (MDA-MB-468 [3]): 2.98 µM
- EC50, CellTiter-Glo (BT-549 [4]): 3.21 µM
- EC50, CellTiter-Glo (MDA-MB-453 [5]): 2.69 µM
- EC50, CellTiter-Glo (MDA-MB-436 [8]): 5.17 µM
- EC50, CellTiter-Glo (SK-BR-3 [9]): 2.75 µM
- EC50, CellTiter-Glo (BT-474 [12]): 4.57 µM
Compound: CCCc1cc(C)[nH]c(=O)c1CNC(=O)c1cc(-c2ccnc(N3CCN(C)CC3)c2)cc2c1cnn2C(C)C [GSK343]
- EC50, CellTiter-Glo (MFM-223 [6]): 7.41 µM
- EC50, CellTiter-Glo (CAL-85-1 [7]): 7.16 µM
- EC50, CellTiter-Glo (CAL-148 [10]): 1.86 µM
- EC50, CellTiter-Glo (DU-4475 [11]): 2.38 µM
- EC50, CellTox Green (MDA-MB-231 [13]): 2.28 µM
- EC50, CellTox Green (HCC1599 [14]): > 10 µM
- EC50, CellTox Green (MDA-MB-453 [15]): 2.68 µM
- EC50, CellTox Green (MFM-223 [16]): 0.227 µM
- EC50, CellTox Green (CAL-85-1 [17]): 3.44 µM
- EC50, CellTox Green (BT-474 [18]): 3.37 µM

- EC50, CellTiter-Blue viability (HCC1599 [19]): 0.0702 µM
Compound: O=C(O)CC[C@H]1CC[C@@](c2cc(F)ccc2F)(S(=O)(=O)c2ccc(Cl)cc2)CC1 [MK-0752]

- EC50, CellTiter-Glo (BT-549 [4]): 0.137 µM
- EC50, CellTiter-Glo (MDA-MB-453 [5]): 0.472 µM
- EC50, CellTiter-Glo (SK-BR-3 [9]): 0.28 µM
- EC50, CellTiter-Blue viability (MDA-MB-468 [21]): 0.131 µM
- EC50, CellTiter-Blue viability (SK-BR-3 [23]): 0.116 µM
- EC50, CellTiter-Blue viability (BT-474 [24]): 0.192 µM
- EC50, CellTiter-Blue viability (MDA-MB-453 [26]): 0.436 µM
Compound: NC1(c2ccc(-c3nc4ccn5c(=O)[nH]nc5c4cc3-c3ccccc3)cc2)CCC1 [MK-2206]
- EC50, CellTiter-Glo (MFM-223 [6]): 0.436 µM
- EC50, CellTiter-Glo (Hs578T [20]): > 1 µM
- EC50, CellTiter-Glo (CAL-148 [10]): 0.279 µM
- EC50, CellTiter-Glo (DU-4475 [11]): > 1 µM
- EC50, CellTiter-Blue viability (MFM-223 [22]): 0.369 µM
- EC50, CellTox Green (CAL-148 [25]): 0.478 µM
- EC50, CellTiter-Blue viability (CAL-51 [27]): 0.942 µM
- EC50, CellTiter-Blue viability (CAL-148 [28]): 0.79 µM

- EC50, CellTiter-Glo (MDA-MB-468 [3]): 1.51 µM
- EC50, CellTiter-Glo (BT-549 [4]): 4.14 µM
- EC50, CellTiter-Glo (MDA-MB-436 [8]): 1.04 µM
- EC50, CellTiter-Blue viability (HCC1937 [31]): 0.116 µM
- EC50, CellTiter-Blue viability (MDA-MB-468 [21]): 1.61 µM
Compound: O=C(c1cc(Cc2n[nH]c(=O)c3ccccc23)ccc1F)N1CCN(C(=O)C2CC2)CC1 [Olaparib]
- EC50, CellTiter-Glo (CAL-51 [29]): 0.0454 µM
- EC50, CellTiter-Glo (CAL-148 [10]): 1.2 µM
- EC50, CellTiter-Glo (CAL-120 [30]): > 10 µM
- EC50, CellTox Green (MDA-MB-436 [32]): 0.498 µM
- EC50, CellTiter-Blue viability (CAL-51 [27]): 6.59 µM
- EC50, CellTiter-Blue viability (DU-4475 [33]): 0.418 µM

- EC50, CellTiter-Glo (MDA-MB-231 [1]): 3.02 µM
- EC50, CellTiter-Glo (HCC1599 [2]): 4.45 µM
- EC50, CellTiter-Glo (HCC1937 [35]): 4.19 µM
- EC50, CellTiter-Glo (MDA-MB-468 [3]): 2.51 µM
- EC50, CellTiter-Glo (BT-549 [4]): 2.34 µM
- EC50, CellTiter-Glo (MDA-MB-453 [5]): 5.31 µM
- EC50, CellTiter-Glo (HCC1143 [36]): 3.91 µM
- EC50, CellTiter-Glo (MDA-MB-436 [8]): 6.15 µM
- EC50, CellTiter-Glo (SK-BR-3 [9]): 4.53 µM
- EC50, CellTiter-Glo (BT-474 [12]): 2.44 µM
- EC50, CellTiter-Blue viability (MDA-MB-231 [38]): 0.0416 µM
- EC50, CellTiter-Blue viability (HCC1599 [19]): 0.105 µM
- EC50, CellTiter-Blue viability (HCC1937 [31]): 0.0372 µM
- EC50, CellTiter-Blue viability (MDA-MB-468 [21]): 0.0281 µM
- EC50, CellTiter-Blue viability (BT-549 [39]): 0.0336 µM
- EC50, CellTiter-Blue viability (HCC1143 [41]): 0.0269 µM
- EC50, CellTiter-Blue viability (MDA-MB-436 [42]): 0.0255 µM
- EC50, CellTiter-Blue viability (SK-BR-3 [23]): 0.0498 µM
- EC50, CellTiter-Blue viability (BT-474 [24]): 0.123 µM
- EC50, CellTiter-Blue viability (MDA-MB-453 [26]): 0.082 µM
Compound: CO[C@H](C(=O)[C@@H](O)[C@@H](C)O)[C@@H]1Cc2cc3cc(O[C@H]4C[C@@H](O[C@@H]5C[C@@H](O)[C@H](O)[C@@H](C)O5)[C@H](O)[C@@H](C)O4)c(C)c(O)c3c(O)c2C(=O)[C@H]1O[C@H]1C[C@@H](O[C@@H]2C[C@@H](O)[C@@H](O[C@@H]3C[C@](C)(O)[C@H](O)[C@@H](C)O3)[C@@H](C)O2)[C@H](O)[C@@H](C)O1 [Plicamycin]
- EC50, CellTiter-Glo (MCF-10A [34]): 4.12 µM
- EC50, CellTiter-Glo (MFM-223 [6]): 7.03 µM
- EC50, CellTiter-Glo (CAL-85-1 [7]): 4.27 µM
- EC50, CellTiter-Glo (Hs578T [20]): 4.22 µM
- EC50, CellTiter-Glo (HDQ-P1 [37]): 5.65 µM
- EC50, CellTiter-Glo (CAL-51 [29]): 0.24 µM
- EC50, CellTiter-Glo (CAL-148 [10]): 4 µM
- EC50, CellTiter-Glo (DU-4475 [11]): 3.22 µM
- EC50, CellTiter-Glo (CAL-120 [30]): 6.76 µM
- EC50, CellTiter-Blue viability (MFM-223 [22]): 0.168 µM
- EC50, CellTiter-Blue viability (Hs578T [40]): 0.0308 µM
- EC50, CellTiter-Blue viability (CAL-120 [43]): 0.0471 µM
- EC50, CellTox Green (MCF-10A [44]): 2.85 µM
- EC50, CellTox Green (MDA-MB-468 [45]): 0.39 µM
- EC50, CellTox Green (MDA-MB-453 [15]): 7.42 µM
- EC50, CellTox Green (CAL-85-1 [17]): 8.29 µM
- EC50, CellTox Green (Hs578T [46]): 6.42 µM
- EC50, CellTiter-Blue viability (CAL-85-1 [47]): 0.0837 µM
- EC50, CellTiter-Blue viability (HDQ-P1 [48]): 0.0845 µM
- EC50, CellTiter-Blue viability (CAL-51 [27]): 0.124 µM
- EC50, CellTiter-Blue viability (CAL-148 [28]): 0.0736 µM
- EC50, CellTiter-Blue viability (DU-4475 [33]): 0.0488 µM

Compound: C[C@]12C=CC(=O)C=C1CC[C@@H]1[C@@H]2C(=O)C[C@@]2(C)[C@H]1CC[C@]2(O)C(=O)CO [Prednisone]
- EC50, CellTiter-Glo (CAL-120 [30]): 8.39 µM
- EC50, CellTox Green (CAL-120 [49]): 1 µM
